The values that follow come from patent publication US20220387472A1, “COMPOSITIONS AND METHODS FOR TREATING CANCER” (AIM ImmunoTech Inc., priority 2020, published 2022).

Several values for one entry are separate records, joined by “and”; a condition that tells them apart may be missing. Identical values can stand only once. Like-named read-outs stand apart in the source and are kept apart here.

The test system of data set [1] is Pancreatic Adenocarcinoma. The note with it: cited from earlier work.
Details of data set [2]: species or system Humans. The note with it: human, in vivo, 6 mg/kg. How it is done: (§1) Ampligen® has undergone extensive preclinical safety testing including 18 animal (mice, rat, rabbit, dog, and monkey) toxicity studies; 6 animal (rat and rabbit) reproductive studies, and 2 animal (rat, monkey) PK/PD studies. The MTD for humans and NHPs is >10 mg/kg and >36 mg/kg, respectively.

For data set [3] the following is noted: cynomolgus monkey, in vivo, 6 mg/kg. How it is done: as §1
Data set [4] in a line: Maximum tolerated dose (MTD) in humans. It is filed as in vivo. How it is done:
as §1

Data set [5] can be described thus: Maximum tolerated dose (MTD) in NHP. The note with it: NHP (Cynomolgus monkey). It is filed as in vivo. As to the method: as §1
In data set [6] the test system is metastatic or locally advanced pancreatic carcinoma. Kind of data set: Survival of pancreatic cancer patients given […] following FOLFIRINOX vs matched historical control group. It is filed as in vivo, human. As to conditions: n = 27 per group, from start of FOLFIRINOX, control: FOLFIRINOX only (historical); for Median Overall Survival: AMPLIGEN i.v. 200 mg twice weekly for 2 weeks, then 400 mg twice weekly, 18 weeks total, following FOLFIRINOX
As to the method: In this case, the tdsRNA used is rintatolimod ([…]®) which is a form of tdsRNA. Included in the study were adults with metastatic or locally advanced pancreatic carcinoma following FOLFIRINOX treatment. The tdsRNA treatment was rintatolimod ([…]®) administered i.v. 200 mg twice weekly for 2 weeks, then 400 mg twice weekly for a total treatment duration of 18 weeks.
The experiment compared survival in the experimental […]® cohort (n=27) compared to a historical control group (n=27) matched for age, gender, disease stage and number of cycles of FOLFIRINOX.
To be selected for the study, the patient should be over 18 years in age and diagnosed with locally advanced pancreatic cancer (LAPC) or metastasized pancreatic cancer. These LACP patients were not candidates for surgical resection. The patient should have completed the standard of care (e.g., A FOLFIRINOX regimen) and the patient should have no progressive disease (as detected by computed tomography (CT) 6 weeks after treatment). Patients with second malignancy (simultaneous), on immunosuppressive medication, or having liver-renal insufficiency were excluded.
Survival analysis was performed as follows. A group of 136 patients was assembled from a retrospective database, including all patients who received FOLFIRINOX between 2012-2018. Variables that were matched include age (+ or −10 years); gender; disease stage (locally advanced pancreatic cancer (LAPC), metastasized, metastasized after resection); and the number of FOLFIRINOX cycles to obtain a historical control group that was well-matched to the experimental group. The outcomes were determined from the start of FOLFIRINOX, and the overall survival and progression-free survival were calculated.

The nature of data set [7]: Clinical safety and tolerability of tdsRNA (rintatolimod). The note with it: for Tolerability: twice weekly infusions. It is filed as in vivo, human. An excerpt:
tdsRNA (e.g., Rintatolimod) has undergone extensive clinical and preclinical testing. […] Favorable safety profiles have been seen for intraperitoneal, intravenous, and intranasal routes of administration of tdsRNA.
Our analysis and previous studies have shown that […]® has a very good safety profile. […]® lacks the potent toxicities seen with most chemotherapeutic agents. See, e.g., […]®'s safety profile in other parts of this disclosure. […] Thus, we believe the ideal use of […]® would be to continue therapy beyond 18 weeks until time of tumor progression. We believe this approach could add an additional 4 to 6 months or more to the overall survival (OS) benefit.

[8] abbreviates: clinical trials enrolling over 1,200 patients, over 100,000 doses.

By MTD is commonly meant the highest dose tested that stayed within the study's limit of toxicity. Higher therefore signals better tolerability.

For `O=C(c1cc(Cc2n[nH]c(=O)c3ccccc23)ccc1F)N1CCN(C(=O)C2CC2)CC1` [Lynparza], the OS Over Control in data set [1] (Second-Line Therapy, median OS over the control arm) is 3.6 months.

Regarding `Nc1ccn([C@@H]2O[C@H](CO)[C@@H](O)C2(F)F)c(=O)n1` [gemcitabine], the “OS Months” value in data set [1] (First-Line Therapy, median overall survival) is 6.7 Months and 6.0 Months and 6.8 Months.

Turning to rIn.r(C12U)n, the Half-Life was found to be 36.5 min in data set [2] and 22.9 min in data set [3]. In addition, the MTD in data set [4] (based on 1200 mg BIW (cancer)) is listed as 17 mg/kg; in data set [4] (based on randomized, well-controlled 24 week study in HIV disease) it was greater than 10 mg/kg; in data set [5] (based on 4 weeks), 100 mg/kg; in data set [5] (based on 24 weeks), greater than 36 mg/kg. The “Median Progression-free Survival” value in data set [6] (AMPLIGEN following FOLFIRINOX) stood at 12.0 months. For the same compound, the “Median Overall Survival” value in data set [6] was 19.0 months and 19 months; in data set [6] (listed as Ampligen) it was 19 months. Further, in data set [7] (setting [8]), the Drug-related deaths entry is recorded as “no drug-related deaths”. Besides, the Tolerability entry is “generally well-tolerated” in data set [7] (setting [8]); “generally well-tolerated” in data set [7] (clinical trials enrolling over 1,200 patients, over 100,000 doses, listed as Ampligen); “well-tolerated” in data set [7] (clinical trials enrolling over 1,200 patients, over 100,000 doses, listed as Rintatolimod). Also, the Cumulative toxicities entry in data set [7] (human, in vivo) is on record as “no evidence of any cumulative toxicities”. In addition, the “Serious adverse events compared to placebo” value in data set [7] (two placebo-controlled, randomized studies) is listed as “no increase in serious adverse events compared to placebo”.
